Values of other authors, collected in patent publication US20230320987A1, “LIPID NANOPARTICLES AND LIPOSOMES” (National Health Research Institutes, priority 2022, published 2023).

What was measured:
[1] = after subcutaneous injection into a human body

half-life [1]: less than one | water solubility: high
Compound: Cc1cc(NC2CCN(C(=O)CCNCC(=O)O)CC2)nc(NCc2nc(CCCNCCCNC3CCCCC3)co2)n1 [CX-1, (3-{4-[2-({4-[3-(3-cyclohexylaminopropylamino)propyl]oxazol-2-ylmethyl}amino)-6-methyl-pyrimidin-4-ylamino]piperidin-1-yl}-3-oxopropylamino)acetic acid]
